What follows are molecules tested against T1, human PTH1 receptor (Homo sapiens, UniProt Q03431) (assay: In vitro cAMP signal activity in HKRK-B7 cells (LLC-PK1 cells overexpressing the human PTH1 receptor)). Conditions: 0.1 µM.
T1 sequence (Q03431 27-593): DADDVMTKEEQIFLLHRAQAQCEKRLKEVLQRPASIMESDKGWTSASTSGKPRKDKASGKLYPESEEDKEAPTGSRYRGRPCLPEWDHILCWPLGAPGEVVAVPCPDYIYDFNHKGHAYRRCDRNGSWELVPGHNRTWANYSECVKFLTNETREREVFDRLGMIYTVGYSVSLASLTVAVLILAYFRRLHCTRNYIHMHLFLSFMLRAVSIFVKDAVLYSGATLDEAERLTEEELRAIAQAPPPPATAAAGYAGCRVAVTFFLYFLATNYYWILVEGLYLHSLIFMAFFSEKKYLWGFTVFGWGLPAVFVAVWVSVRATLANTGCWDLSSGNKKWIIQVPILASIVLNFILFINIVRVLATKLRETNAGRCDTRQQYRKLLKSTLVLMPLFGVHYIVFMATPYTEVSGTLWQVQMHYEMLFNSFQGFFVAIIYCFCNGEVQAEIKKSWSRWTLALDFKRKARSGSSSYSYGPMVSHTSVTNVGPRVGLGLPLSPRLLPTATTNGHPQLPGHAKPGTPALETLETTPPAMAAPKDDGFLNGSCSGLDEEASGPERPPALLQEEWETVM
Format: cell-based

Row | SMILES | cAMP production activity (%)
1 | Cc1cc(N(C)C(N)=O)cc(C)c1CCS(=O)(=O)N1CCC2(CC1)N=C(C1CCC([Si](C)(C)C)CC1)NC2=O (stereo not shown) [Compound 1137, 1-(3,5-Dimethyl-4-{2-[4-oxo-2-(4-trimethylsilanyl-cyclohexyl)-1,3,8-triaza-spiro[4.5]dec-1-ene-8-sulfonyl]-ethyl}-phenyl)-1-methyl-urea] | 82

Same assay, conditions: HKRK-B7 cells; compound at 1×10^−3 M; cAMP produced as percentage of that produced by hPTH(1-34) at 100 nM

Row | SMILES | cAMP production activity (%)
2 | Cc1cc(N(C)C(N)=O)cc(C)c1CCS(=O)(=O)N1CCC2(CC1)N=C(c1ccc(F)c(OC(F)(F)F)c1)NC2=O [Compound 1028, 1-(4-{2-[2-(4-Fluoro-3-trifluoromethoxy-phenyl)-4-oxo-1,3,8-triaza-spiro[4.5]dec-1-ene-8-sulfonyl]-ethyl}-3,5-dimethyl-phenyl)-1-methyl-urea] | 75
3 | [2H]C([2H])([2H])C([2H])(Oc1cc(C2=NC3(CCN(S(=O)(=O)/C=C/c4c(C)cc(C(=O)N5CCC(C)(O)CC5)cc4C)CC3)C(=O)N2)ccc1F)C([2H])([2H])[2H] [Compound 1225, 2-(4-fluoro-3-[1,2,2,2,2,2,2-^2H7]isopropoxy-phenyl)-8-{(E)-2-[4-(4-hydroxy-4-methyl-piperidine-1-carbonyl)-2,6-dimethyl-phenyl]-ethenesulfonyl}-1,3,8-triaza-spiro[4.5]dec-1-en-4-one] | 90
4 | Nc1cccc(CCS(=O)(=O)N2CCC3(CC2)N=C(C2CCCCC2)NC3=O)c1 [Compound 166, 8-[2-(3-Amino-phenyl)-ethanesulfonyl]-2-cyclohexyl-1,3,8-triaza-spiro[4.5]dec-1-en-4-one] | 56
5 | CC(=O)N(C)c1cccc(/C=C/S(=O)(=O)N2CCC3(CC2)N=C(c2cccc(OC(F)(F)F)c2)NC3=O)c1C [Compound 236, N-methyl-N-(2-methyl-3-{(E)-2-[4-oxo-2-(3-trifluoromethoxy-phenyl)-1,3,8-triaza-spiro[4.5]dec-1-ene-8-sulfonyl]-vinyl}-phenyl)-acetamide] | 40
6 | CC(C)(C)COC(=O)N1CCCC(C2=NC3(CCN(S(=O)(=O)CCc4cccc5ccccc45)CC3)C(=O)N2)C1 (stereo not shown) [Compound 465, 3-[8-(2-naphthalen-1-yl-ethanesulfonyl)-4-oxo-1,3,8-triaza-spiro[4.5]dec-1-en-2-yl]-piperidine-1-carboxylic acid 2,2-dimethyl-propyl ester] | 66
7 | Cc1cc(N(C)C(N)=O)cc(C)c1/C=C/[S@TB3](=O)(=O)N1CCC2(CC1)N=C(c1ccc(Cl)c(C(F)(F)F)c1)NC2=O [Compound 1113, 1-(4-{(E)-2-[2-(4-chloro-3-trifluoromethyl-phenyl)-4-oxo-1,3,8-triaza-spiro[4.5]dec-1-ene-8-sulfonyl]-vinyl}-3,5-dimethyl-phenyl)-1-methyl-urea] | 99
8 | Cc1cc(C2=NC3(CCN(S(=O)(=O)/C=C/c4c(C)cc(C(=O)N5CCC(O)(CF)CC5)cc4C)CC3)C(=O)N2)ccc1OC(F)(F)F [Compound 1258, 8-{(E)-2-[4-(4-fluoromethyl-4-hydroxy-piperidine-1-carbonyl)-2,6-dimethyl-phenyl]-ethenesulfonyl}-2-(3-methyl-4-trifluoromethoxy-phenyl)-1,3,8-triaza-spiro[4.5]dec-1-en-4-one] | 116
9 | COC(=O)NCCc1ccc(CCS(=O)(=O)N2CCC3(CC2)N=C(C2CCCCC2)NC3=O)cc1 [Compound 672, (2-{4-[2-(2-Cyclohexyl-4-oxo-1,3,8-triaza-spiro[4.5]dec-1-ene-8-sulfonyl)-ethyl]-phenyl}-ethyl)-carbamic acid methyl ester] | 47
10 | Cc1cc(S(=O)(=O)NCC(F)(F)F)ccc1/C=C/S(=O)(=O)N1CCC2(CC1)N=C(c1cccc(C(F)(F)F)c1)NC2=O [Compound 217, 3-methyl-4-{(E)-2-[4-oxo-2-(3-trifluoromethyl-phenyl)-1,3,8-triaza-spiro[4.5]dec-1-ene-8-sulfonyl]-vinyl}-N-(2,2,2-trifluoro-ethyl)-benzenesulfonamide] | 41
11 | Cc1cc(C(=O)N(C)C)ccc1-c1cccc(S(=O)(=O)N2CCC3(CC2)N=C(c2cccc(OC(F)(F)F)c2)NC3=O)n1 [Compound 337, 3,N,N-trimethyl-4-{6-[4-oxo-2-(3-trifluoromethoxy-phenyl)-1,3,8-triaza-spiro[4.5]dec-1-ene-8-sulfonyl]-pyridin-2-yl}-benzamide] | 17
12 | Cc1cc(N2CCNCC2=O)ccc1CCS(=O)(=O)N1CCC2(CC1)N=C(C1CCC(C)CC1)NC2=O (stereo not shown) [Compound 870, 2-(4-methyl-cyclohexyl)-8-{2-[2-methyl-4-(2-oxo-piperazin-1-yl)-phenyl]-ethanesulfonyl}-1,3,8-triaza-spiro[4.5]dec-1-en-4-one] | 63
13 | Cc1cc(NS(N)(=O)=O)ccc1/C=C/S(=O)(=O)N1CCC2(CC1)N=C(c1cccc(OC(F)(F)F)c1)NC2=O [Compound 742, N-(3-Methyl-4-{(E)-2-[4-oxo-2-(3-trifluoromethoxy-phenyl)-1,3,8-triaza-spiro[4.5]dec-1-ene-8-sulfonyl]-vinyl}-phenyl)-sulfamide] | 50
14 | Cc1cc(C(=O)N2CCC(O)(CF)CC2)cc(C)c1/C=C/S(=O)(=O)N1CCC2(CC1)N=C(c1ccc(OCCCC(F)(F)C(F)(F)F)c(C(F)(F)F)c1)NC2=O [Compound 1252, 8-{(E)-2-[4-(4-fluoromethyl-4-hydroxy-piperidine-1-carbonyl)-2,6-dimethyl-phenyl]-ethenesulfonyl}-2-[4-(4,4,5,5,5-pentafluoro-pentyloxy)-3-trifluoromethyl-phenyl]-1,3,8-triaza-spiro[4.5]dec-1-en-4-one] | 72
15 | Cc1cc(C(=O)N(C)C)ccc1CCS(=O)(=O)N1CCC2(CC1)N=C(c1ccc(S(C)(=O)=O)cc1)NC2=O [Compound 891, 4-{2-[2-(4-methanesulfonyl-phenyl)-4-oxo-1,3,8-triaza-spiro[4.5]dec-1-ene-8-sulfonyl]-ethyl}-3,N,N-trimethyl-benzamide] | 8.6
16 | Cc1cc(C(=O)N2CCC(C)(O)CC2)cc(C)c1/C=C/S(=O)(=O)N1CCC2(CC1)N=C(c1ccc(F)c(C(F)(F)F)c1)NC2=O [Compound 642, 2-(4-fluoro-3-trifluoromethyl-phenyl)-8-{(E)-2-[4-(4-hydroxy-4-methyl-piperidine-1-carbonyl)-2,6-dimethyl-phenyl]-ethenesulfonyl}-1,3,8-triaza-spiro[4.5]dec-1-en-4-one] | 87
17 | Cc1cc(C(=O)N2CCCN2)cc(C)c1CCS(=O)(=O)N1CCC2(CC1)N=C(C1CCC(CCC(F)(F)F)CC1)NC2=O (stereo not shown) [Compound 1386, 8-{2-[2,6-dimethyl-4-(pyrazolidine-1-carbonyl)-phenyl]-ethanesulfonyl}-2-[4-(3,3,3-trifluoro-propyl)-cyclohexyl]-1,3,8-triaza-spiro[4.5]dec-1-en-4-one] | 92
18 | Cc1cc(C(=O)N(C)CC(=O)O)cc(C)c1/C=C/S(=O)(=O)N1CCC2(CC1)N=C(c1cccc(C(F)(F)F)c1)NC2=O [Compound 452, [(3,5-Dimethyl-4-{(E)-2-[4-oxo-2-(3-trifluoromethyl-phenyl)-1,3,8-triaza-spiro[4.5]dec-1-ene-8-sulfonyl]-vinyl}-benzoyl)-methyl-amino]-acetic acid] | 58

Same assay, conditions: HKRK-B7 cells; compound at 1×10^−3 M; cAMP produced as percentage of that produced by hPTH(1-34) at 100 nM; 0.1 µM

Row | SMILES | cAMP production activity (%)
19 | Cc1cc2ccc1CCS(=O)(=O)N1CCC3(CC1)N=C(NC3=O)c1cc(cc(C(F)(F)F)c1)OCCC=CCCCCN(C)C2=O [Compound 1411] | 38

— US9169254B2, “Spiroimidazolone derivative” (Chugai Seiyaku Kabushiki Kaisha, priority 2009, dated 2015)
